Key:
[1] = Thermal decomposition (TGA / DSC); format: physicochemical
Text: The optical and thermal properties of the thiazolyl-pyridinium based dye compounds were studied. The dyes show high absorption at the desired wavelengths. In addition, the shape of the absorption spectra, that still remains critical to the disc reflectivity and formation of clean mark edges, are composed of one major band, comprised in a range of from 350 to 500 nm, preferably of from 350 to 400 nm.
Sharp threshold of thermal decomposition within the required temperature range characterizes the new thiazolylpyridinium based dyes which are assumed to be desirable for the application in optical layers for optical data recording.

[2] = Solubility in 2,2,3,3-tetrafluoropropanol; conditions: 20 °C, organic solvent or mixture

TGA (decomp.) [1] [°C]	Structure (SMILES)	solubility [2] [mg/mL]
244	C[n+]1ccc(-c2nc3ccc(Cl)cc3s2)cc1.[I-] [Example 12, 1-methyl-4-(6-chlor-benzothiazol-2-yl)pyridinium iodide]	> 50
250	COc1ccc(-c2csc(-c3cc[n+](C)cc3)n2)cc1.[I-] [Example 10, 4-[4-(4-methoxy-phenyl)-thiazol-2-yl]-1-methyl-pyridinium iodide]	> 50
240	COc1ccc(-c2csc(-c3cc[n+](C(C)C)cc3)n2)cc1 [Example 11]	> 50

Further lines, the molecule ahead of its results:

Structure (SMILES)	TGA (decomp.) [1] [°C]	solubility [2] [mg/mL]
C[n+]1ccc(-c2nc(-c3ccccc3)cs2)cc1.[I-] [Example 9, 1-methyl-4-[4-phenyl-thiazolyl-(2)]-pyridinium iodide]	260	> 30
C[n+]1ccc(-c2nc(C(C)(C)C)cs2)cc1.[I-] [Example 8, 1-methyl-4-[4-tert-butyl-thiazolyl-(2)]-pyridiniumiodide]	–	> 5e-05
CC(C)[n+]1ccc(-c2nc(-c3ccccc3)cs2)cc1.[I-] [Example 7, 1-isopropyl-4-[4-phenyl-thiazolyl-(2)]-pyridiniumiodide]	270	> 50

Source: US7655767B2, “Use of thiazolyl-pyridinium based dyes in optical layers for optical data recording” (priority 2004, dated 2010)
